Laboratory results published in patent publication US9353088B2, “Crystalline pharmaceutical and methods of preparation and use thereof” (SARcode Bioscience Inc., priority 2009, dated 2016).

System: tester strains
Test: In vitro Ames bacterial reverse mutation assay
Type: cell-based
Conditions: presence or absence of microsomal (S9) enzymes
Description: Therefore, the compound of Formula I was judged to be not mutagenic.

CS(=O)(=O)c1cccc(C[C@H](NC(=O)c2c(Cl)cc3c(c2Cl)CCN(C(=O)c2ccc4ccoc4c2)C3)C(=O)O)c1 [Compound of Formula I]
mutagenicity: not mutagenic
